# Reference: patent US20260048047A1, “SMALL-MOLECULE ACTIVATORS OF MYCOBACTERIUM TUBERCULOSIS ADENYLYL CYCLASE” (priority 2022, published 2026)
# Like-named read-outs stand apart in the source and are kept apart here.
# Key:
# M. tuberculosis = test: Extracellular activity against M. tuberculosis in cholesterol media (Alamar Blue reduction assay); format: cell-based, Mycobacterium tuberculosis
# [1] = test system: non-replicating M. tuberculosis; test: Hu Coats 100-day old culture model; conditions: added to PB, 50 μM
# Mtb in macrophages = test: Inhibition of Mtb replication in macrophages (intramacrophage EC50); format: cell-based, Mycobacterium tuberculosis; conditions: Table S2; read-out: Macrophages EC50
# [2] = Mycobacterium tuberculosis, 240 h, 7H12-Cholesterol media, 10 days, read-out: Cholesterol broth: alamar blue--EC50
SMILES,EC50 (M. tuberculosis; [2]) [µM],also measured
"Cc1cccc(OC2CCN(C(=O)Cc3nonc3C)CC2)c1C [Compound 254, 1-(4-(2,3-dimethylphenoxy)piperidin-1-yl)-2-(4-methyl-1,2,5-oxadiazol-3-yl)ethan-1-one]",> 10,
"Cc1nonc1CC(=O)N1CCC(c2ccc(-c3ccc(F)cc3)nn2)CC1 [Compound 255, 1-(4-(6-(4-fluorophenyl)pyridazin-3-yl)piperidin-1-yl)-2-(4-methyl-1,2,5-oxadiazol-3-yl)ethan-1-one]",> 10,
"Cc1nonc1CC(=O)N1CCCC(c2nc(-c3ccc(F)cc3)no2)C1 (stereo not drawn) [Compound 256, 1-(3-(3-(4-fluorophenyl)-1,2,4-oxadiazol-5-yl)piperidin-1-yl)-2-(4-methyl-1,2,5-oxadiazol-3-yl)ethan-1-one]",> 10,
"Cc1nonc1CC(=O)N1CC(c2nc(-c3ccc(F)cc3)no2)C1 [Compound 257, 1-(3-(3-(4-fluorophenyl)-1,2,4-oxadiazol-5-yl)azetidin-1-yl)-2-(4-methyl-1,2,5-oxadiazol-3-yl)ethan-1-one]",> 10,
"Cc1nonc1CC(=O)N1CCC2(CCC2n2nnc(-c3ccc(F)cc3)n2)CC1 (stereo not drawn) [Compound 258, 1-(1-(5-(4-fluorophenyl)-2H-tetrazol-2-yl)-7-azaspiro[3.5]nonan-7-yl)-2-(4-methyl-1,2,5-oxadiazol-3-yl)ethan-1-one]",> 25,
"CC(=O)NC[C@H]1CN(c2ccc(N3CCOCC3)c(F)c2)C(=O)O1 [LIN, Linezolid, reference compound]",,CFU reduction versus PB [1]: superior CFU reduction
Cn1ncnc1CC(=O)N1[C@@H]2CC(c3nc(-c4ccc(Cl)c(Cl)c4)no3)C[C@H]1C2 (stereo partly drawn) [mCLF025],,"EC50 (M. tuberculosis; Table S2, read-out: Cholesterol EC50): > 30 µM; Potency of trans isomer in words (M. tuberculosis; Table S2 assays): inactive; EC50 (Mtb in macrophages): > 30 µM"
